Measured values as given in PMC11073699, “Odorant receptors for floral- and plant-derived volatiles in the yellow fever mosquito, Aedes aegypti (Diptera: Culicidae)” (PLOS ONE, 2024).
Several values for one entry are separate records, joined by “and”; a condition that tells them apart may be missing. Identical values can stand only once.

Key:
Assay type in all cases: cell-based
AaegOR13 = biological target: T1, AaegOR13 (Aedes aegypti, UniProt Q16Z13); test: Two-electrode voltage clamp of Xenopus laevis oocytes expressing AaegOR13/Orco (blends, unitary compounds, concentration-response); settings: unitary compounds
T1 sequence (Q16Z13 1-389): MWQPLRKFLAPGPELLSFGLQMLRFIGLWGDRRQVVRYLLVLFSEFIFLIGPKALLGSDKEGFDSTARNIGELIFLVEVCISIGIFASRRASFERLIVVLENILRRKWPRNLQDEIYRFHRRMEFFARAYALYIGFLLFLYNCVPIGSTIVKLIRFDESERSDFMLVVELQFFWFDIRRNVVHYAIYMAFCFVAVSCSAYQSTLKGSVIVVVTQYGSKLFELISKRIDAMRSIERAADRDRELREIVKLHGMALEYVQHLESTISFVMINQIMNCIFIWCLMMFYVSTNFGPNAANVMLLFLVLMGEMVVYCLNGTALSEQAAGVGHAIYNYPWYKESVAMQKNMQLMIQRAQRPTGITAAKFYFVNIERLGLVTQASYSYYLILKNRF
T1 sequence (Q178U6 1-478 partner): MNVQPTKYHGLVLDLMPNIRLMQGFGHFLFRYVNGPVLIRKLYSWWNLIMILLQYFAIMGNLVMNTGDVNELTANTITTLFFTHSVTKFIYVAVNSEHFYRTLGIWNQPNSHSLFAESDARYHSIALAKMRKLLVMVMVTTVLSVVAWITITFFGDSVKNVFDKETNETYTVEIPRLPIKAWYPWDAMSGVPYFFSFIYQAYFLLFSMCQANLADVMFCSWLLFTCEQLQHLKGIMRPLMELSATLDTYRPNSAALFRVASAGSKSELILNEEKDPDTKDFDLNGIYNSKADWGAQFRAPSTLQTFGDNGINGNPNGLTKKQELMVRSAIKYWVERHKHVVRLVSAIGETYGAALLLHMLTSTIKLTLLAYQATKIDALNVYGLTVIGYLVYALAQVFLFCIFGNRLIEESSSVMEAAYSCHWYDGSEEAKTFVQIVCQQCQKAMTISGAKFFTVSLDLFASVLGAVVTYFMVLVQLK
Excerpt: (§1) The coding regions of ten AaegOR genes of interest (S3 File) and AaegOrco were synthesized by Twist Bioscience (San Francisco, CA, USA) and cloned into the pENTR plasmid. The Gateway LR directional cloning system (Invitrogen Corp., Carlsbad, CA, USA) was utilized to subclone AaegOR coding regions into the pSP64t-RFA oocyte expression plasmid. Plasmids were purified using the GeneJet Plasmid Miniprep Kit (ThermoFisher Scientific, Waltham, MA, USA). Purified plasmids were sequenced in both directions to confirm coding regions.
(§2) Chemical compounds (S6 File) used in the deorphanization of AaegORs were purchased from Acros Organics (Morris, NJ, USA), Alfa Aesar (Ward Hill, MA, USA), and ThermoFisher Scientific (Waltham, MA, USA) at the highest purity available. Compounds were stored as 1M stocks in 100% DMSO. Serial dilutions of each compound were prepared in 10% DMSO and blended by chemical class.
(§3) pSP64t-RFA: AaegOR clones were linearized using Xbal, and cRNAs were synthesized using the mMESSAGE mMACHINE ® SP6 kit (Life Technologies, Carlsbad, CA, USA). Xenopus laevis stage V-VII oocytes purchased from Xenopus1 (Dexter, MI, USA) were stored at 18°C in Incubation medium (ND96 96 with 5% dialyzed horse serum, 50μg/mL gentamycin, 100μg/mL streptomycin, 100μg/mL penicillin, and 550μg/mL sodium pyruvate). 30nL of cRNA was injected into multiple oocytes using a microinjection syringe pump (World Precision Instruments, Sarasota, FL, USA) maintained at 18°C for 48–72 hrs. Odorant blends were perfused across individual oocytes for 10–15 seconds, held at a resting membrane potential of -80 mV using an OC-725C oocyte clamp (Warner Instruments, LLC, Hamden, CT, USA). Induced currents were measured indirectly using the two-electrode voltage clamp technique (TEVC). Following each stimulus, currents were allowed to return to baseline before further stimulation. Data was captured using the Digidata 1550 B digitizer and PClamp10 software (Molecular Devices, San Jose, CA, USA). Concentration-response curves were generated by perfusing unitary odorants over oocytes at increasing concentrations from [10^-3M] to [10^-9M]. Data were analyzed using GraphPad Prism 8 (GraphPad Software Inc., La Jolla, CA, USA). At least two biological replicates were conducted at each concentration and for each compound. Data for at least seven oocytes responding to each compound was analyzed (S7 File).

AaegOR15 = biological target: T2, AaegOR15 (Aedes aegypti, UniProt A0A6B9QIR2); test: Two-electrode voltage clamp of Xenopus laevis oocytes expressing AaegOR15/Orco (blends, unitary compounds, concentration-response); settings: unitary compounds of Alcohols 2; for Raw data (Responses in nA), compounds of blend Alcohols 2: individual oocytes 1-10 (replicates)
T2 sequence (A0A6B9QIR2 1-390): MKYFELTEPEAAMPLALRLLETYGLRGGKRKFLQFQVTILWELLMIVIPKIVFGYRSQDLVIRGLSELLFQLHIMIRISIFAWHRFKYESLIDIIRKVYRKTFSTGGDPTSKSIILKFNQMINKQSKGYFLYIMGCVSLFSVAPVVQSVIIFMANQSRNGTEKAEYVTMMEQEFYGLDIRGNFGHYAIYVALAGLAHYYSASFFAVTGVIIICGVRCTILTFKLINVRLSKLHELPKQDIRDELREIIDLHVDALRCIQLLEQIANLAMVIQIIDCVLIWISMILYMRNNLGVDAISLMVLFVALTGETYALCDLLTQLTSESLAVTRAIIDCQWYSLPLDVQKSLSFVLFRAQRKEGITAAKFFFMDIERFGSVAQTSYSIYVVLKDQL
T2 sequence (Q178U6 1-478 partner): T1 sequence (Q178U6 1-478 partner)
Excerpt: as §1, §2, §3

AaegOR28 = biological target: T3, AaegOR28 (Aedes aegypti, UniProt Q0IGE1); test: Two-electrode voltage clamp of Xenopus laevis oocytes expressing AaegOR28/Orco (blends, unitary compounds, concentration-response); settings: AaegOR28, compounds of blend Alcohols 3; for Raw Data (Responses in nA), Alcohols 3 unitary compounds: individual oocytes 1-10; for Normalized response, Average, Alcohols 3 unitary compounds: average of 10 oocytes; for Normalized response, Alcohols 3 unitary compounds: individual oocytes 1-10, normalized to largest response of each oocyte
T3 sequence (Q0IGE1 1-394): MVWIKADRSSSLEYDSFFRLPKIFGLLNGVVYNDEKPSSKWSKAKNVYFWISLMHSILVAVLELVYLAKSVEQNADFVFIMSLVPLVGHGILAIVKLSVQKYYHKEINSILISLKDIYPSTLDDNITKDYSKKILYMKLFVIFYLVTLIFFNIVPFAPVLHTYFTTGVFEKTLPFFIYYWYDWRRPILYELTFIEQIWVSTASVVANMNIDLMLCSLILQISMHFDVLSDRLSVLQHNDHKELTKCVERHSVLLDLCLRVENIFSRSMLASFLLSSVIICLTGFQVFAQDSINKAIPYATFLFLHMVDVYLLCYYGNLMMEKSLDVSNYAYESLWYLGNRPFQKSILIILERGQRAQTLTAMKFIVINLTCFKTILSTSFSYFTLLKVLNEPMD
T3 sequence (Q178U6 1-478 partner): T1 sequence (Q178U6 1-478 partner)
Excerpt: as §1, §2, §3

AaegOR31 = biological target: T4, AaegOR31 (Aedes aegypti, UniProt Q16JU0); test: Two-electrode voltage clamp of Xenopus laevis oocytes expressing AaegOR31/Orco (blends, unitary compounds, concentration-response); settings: AaegOR31, compounds of blend Alcohols 1
T4 sequence (Q16JU0 1-381): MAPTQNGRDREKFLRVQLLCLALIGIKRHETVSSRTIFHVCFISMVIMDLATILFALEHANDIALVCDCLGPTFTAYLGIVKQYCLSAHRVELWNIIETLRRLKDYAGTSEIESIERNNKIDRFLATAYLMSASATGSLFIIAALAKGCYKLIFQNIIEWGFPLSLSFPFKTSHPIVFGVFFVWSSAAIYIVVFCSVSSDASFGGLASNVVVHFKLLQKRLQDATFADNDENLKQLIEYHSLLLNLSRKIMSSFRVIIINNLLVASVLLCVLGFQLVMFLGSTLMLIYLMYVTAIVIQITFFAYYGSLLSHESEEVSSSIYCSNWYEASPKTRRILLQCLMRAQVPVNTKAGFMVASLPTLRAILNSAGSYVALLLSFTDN
T4 sequence (Q178U6 1-478 partner): T1 sequence (Q178U6 1-478 partner)
Excerpt: as §1, §2, §3

| Structure (SMILES) | Raw data (Responses in nA), unitary compounds of Indoles 1, Alcohols 1, Alcohols 3 (AaegOR13; individual oocytes 1-7) [nA] | Raw data (Responses in nA), compounds of blend Alcohols 2 (AaegOR15) | Raw Data (Responses in nA), Alcohols 3 unitary compounds (AaegOR28) | Normalized response, Average, Alcohols 3 unitary compounds (AaegOR28) | Normalized response, Alcohols 3 unitary compounds (AaegOR28) | further results |
| --- | --- | --- | --- | --- | --- | --- |
| CC(C)C12CCC(C)(CC1)O2 [1,4-Cineole] | 0.0 | 0.0 nA (6×) and 10.0 nA (4×) | 0 nA |  |  |  |
| C=C[C@](C)(O)CCC=C(C)C [(R)-(-)-linalool] |  | 0.0 nA (3×) and 10.0 nA (2×) and 20.0 nA and 25.0 nA and 40.0 nA (2×) and 15.0 nA | 10 nA (5×) and 5 nA (4×) and 20 nA | 25.1 | 33.3 and 28.6 and 50.0 and 25.0 and 20.0 and 16.7 and 12.5 and 22.2 (2×) and 20 | Normalized response, compounds of blend Alcohols 2, Average (AaegOR15; average of 10 oocytes, 1-hexanol = 100): 2.4; Normalized response, compounds of blend Alcohols 2 (AaegOR15; individual oocytes 1-10, normalized to the largest response of each oocyte (1-hexanol = 100)): 0.0 (3×) and 1.4 and 2.6 and 3.7 (2×) and 1.7 and 5.4 and 5.5 |
| C=C[C@@](C)(O)CCC=C(C)C [(S)-(+)-linalool] |  |  | 10 nA (2×) and 5 nA (5×) and 0 nA and 15 nA (2×) | 19.1 | 33.3 and 14.3 and 25.0 and 0.0 and 30.0 and 16.7 (2×) and 12.5 and 22.2 and 20 |  |
| CC(C)=CCC/C(C)=C/CO [Geraniol] |  |  | 0 nA |  |  |  |
| C=CC1(C)CCC(C(C)(C)O)O1 (stereo not drawn) [Linalool Oxide] |  | 0.0 nA (6×) and 10.0 nA (2×) and 5.0 nA (2×) | 0 nA |  |  |  |
| CCO [ethanol] | 0.0 |  |  |  |  | Normalized response, unitary compounds, Average (AaegOR13; average of oocytes 1-7): 0.0; Normalized response, unitary compounds of Indoles 1, Alcohols 1, Alcohols 3 (AaegOR13; normalized per oocyte, individual oocytes 1-7): 0.0; Normalized response, Average, Alcohols 1 unitary compounds (AaegOR31; average of 8 oocytes): 0.0; Raw Data (Responses in nA), Alcohols 1 unitary compounds (AaegOR31; individual oocytes (Oocyte 1-8)): 0.0 nA; Normalized response, Alcohols 1 unitary compounds (AaegOR31; individual oocytes (Oocyte 1-8), normalized to the strongest compound per oocyte): 0.0 |
